Source: the CheMixHub viscosity set

Test: xn = mol fraction of the nth substance listed

N[C@@H](Cc1c[nH]cn1)C(=O)O + O
Settings | viscosity [mPa·s]
293.15 K, 101 kPa, x1 = 0.005413 | 1.128
298.15 K, 100 kPa, x1 = 0.000193 | 0.8927
298.15 K, 100 kPa, x1 = 0.00027 | 0.898
298.15 K, 100 kPa, x1 = 0.00036 | 0.899
298.15 K, 100 kPa, x1 = 0.000403 | 0.895
298.15 K, 100 kPa, x1 = 0.00063 | 0.904
298.15 K, 100 kPa, x1 = 0.00072 | 0.907
298.15 K, 100 kPa, x1 = 0.00074 | 0.8987
298.15 K, 100 kPa, x1 = 0.00081 | 0.907
298.15 K, 100 kPa, x1 = 0.00099 | 0.91
298.15 K, 100 kPa, x1 = 0.00117 | 0.913
298.15 K, 100 kPa, x1 = 0.00171 | 0.921
298.15 K, 100 kPa, x1 = 0.001798 | 0.9349
298.15 K, 100 kPa, x1 = 0.0018 | 0.927
298.15 K, 100 kPa, x1 = 0.002157 | 0.9434
298.15 K, 100 kPa, x1 = 0.002516 | 0.9518
298.15 K, 100 kPa, x1 = 0.002876 | 0.9604
298.15 K, 101 kPa, x1 = 0.00027 | 0.898
298.15 K, 101 kPa, x1 = 0.00063 | 0.9034
298.15 K, 101 kPa, x1 = 0.0013 | 0.9127
298.15 K, 101 kPa, x1 = 0.00207 | 0.9208
298.15 K, 101.3 kPa, x1 = 0.0004504 | 0.898
298.15 K, 101.3 kPa, x1 = 0.0008971 | 0.903
298.15 K, 101.3 kPa, x1 = 0.001791 | 0.913
298.15 K, 101.3 kPa, x1 = 0.002688 | 0.924
303.15 K, 100 kPa, x1 = 0.00036 | 0.804
303.15 K, 100 kPa, x1 = 0.00045 | 0.807
303.15 K, 100 kPa, x1 = 0.00054 | 0.807
303.15 K, 100 kPa, x1 = 0.00108 | 0.817
303.15 K, 100 kPa, x1 = 0.00126 | 0.821
303.15 K, 100 kPa, x1 = 0.00144 | 0.827
303.15 K, 100 kPa, x1 = 0.00153 | 0.824
303.15 K, 100 kPa, x1 = 0.00162 | 0.827
303.15 K, 100 kPa, x1 = 0.002157 | 0.8407
303.15 K, 100 kPa, x1 = 0.002516 | 0.8474
303.15 K, 100 kPa, x1 = 0.002876 | 0.8544
303.15 K, 101 kPa, x1 = 0.00027 | 0.8035
303.15 K, 101 kPa, x1 = 0.00063 | 0.8079
303.15 K, 101 kPa, x1 = 0.0013 | 0.8152
303.15 K, 101 kPa, x1 = 0.00243 | 0.8255
303.15 K, 101 kPa, x1 = 0.003563 | 0.8636
303.15 K, 101 kPa, x1 = 0.005413 | 0.8992
303.15 K, 101.3 kPa, x1 = 0.0004504 | 0.804
303.15 K, 101.3 kPa, x1 = 0.002239 | 0.824
308.15 K, 100 kPa, x1 = 0.00027 | 0.727
308.15 K, 100 kPa, x1 = 0.00054 | 0.727
308.15 K, 100 kPa, x1 = 0.00135 | 0.743
308.15 K, 100 kPa, x1 = 0.00143 | 0.74
308.15 K, 100 kPa, x1 = 0.00144 | 0.7434
308.15 K, 100 kPa, x1 = 0.00171 | 0.748
308.15 K, 100 kPa, x1 = 0.002157 | 0.7543
308.15 K, 100 kPa, x1 = 0.002516 | 0.7596
308.15 K, 100 kPa, x1 = 0.002876 | 0.7651
308.15 K, 101 kPa, x1 = 0.00027 | 0.724
308.15 K, 101 kPa, x1 = 0.00063 | 0.7274
308.15 K, 101 kPa, x1 = 0.00099 | 0.7304
308.15 K, 101 kPa, x1 = 0.0013 | 0.7334
308.15 K, 101 kPa, x1 = 0.00243 | 0.7421
308.15 K, 101.3 kPa, x1 = 0.0004504 | 0.723
308.15 K, 101.3 kPa, x1 = 0.0008971 | 0.728
308.15 K, 101.3 kPa, x1 = 0.001346 | 0.733
308.15 K, 101.3 kPa, x1 = 0.002239 | 0.743
308.15 K, 101.3 kPa, x1 = 0.002688 | 0.748
313.15 K, 100 kPa, x1 = 0.000358 | 0.6589
313.15 K, 100 kPa, x1 = 0.00036 | 0.657
313.15 K, 100 kPa, x1 = 0.00099 | 0.672
313.15 K, 100 kPa, x1 = 0.00171 | 0.682
313.15 K, 100 kPa, x1 = 0.001798 | 0.6769
313.15 K, 100 kPa, x1 = 0.002516 | 0.6853
313.15 K, 100 kPa, x1 = 0.002876 | 0.6895
313.15 K, 101 kPa, x1 = 0.00027 | 0.6566
313.15 K, 101 kPa, x1 = 0.00063 | 0.6592
313.15 K, 101 kPa, x1 = 0.00092 | 0.6773
313.15 K, 101 kPa, x1 = 0.00243 | 0.6716
313.15 K, 101 kPa, x1 = 0.003563 | 0.7141
313.15 K, 101.3 kPa, x1 = 0.0004504 | 0.657
313.15 K, 101.3 kPa, x1 = 0.001791 | 0.672
313.15 K, 101.3 kPa, x1 = 0.002239 | 0.677
313.15 K, 101.3 kPa, x1 = 0.002688 | 0.682
318.15 K, 100 kPa, x1 = 0.00027 | 0.603
318.15 K, 100 kPa, x1 = 0.000358 | 0.6026
318.15 K, 100 kPa, x1 = 0.000718 | 0.6065
318.15 K, 100 kPa, x1 = 0.00099 | 0.614
318.15 K, 100 kPa, x1 = 0.00108 | 0.61
318.15 K, 100 kPa, x1 = 0.00117 | 0.616
318.15 K, 100 kPa, x1 = 0.00135 | 0.618
318.15 K, 100 kPa, x1 = 0.00144 | 0.6135
318.15 K, 100 kPa, x1 = 0.00171 | 0.623
318.15 K, 100 kPa, x1 = 0.002157 | 0.62
318.15 K, 100 kPa, x1 = 0.002516 | 0.6232
318.15 K, 100 kPa, x1 = 0.002876 | 0.6262
318.15 K, 101.3 kPa, x1 = 0.0004504 | 0.598
318.15 K, 101.3 kPa, x1 = 0.0008971 | 0.603
318.15 K, 101.3 kPa, x1 = 0.001791 | 0.613
318.15 K, 101.3 kPa, x1 = 0.002239 | 0.618
318.15 K, 101.3 kPa, x1 = 0.002688 | 0.623
323.15 K, 101 kPa, x1 = 0.00092 | 0.5791
323.15 K, 101 kPa, x1 = 0.001804 | 0.5862
323.15 K, 101 kPa, x1 = 0.003563 | 0.6075
323.15 K, 101 kPa, x1 = 0.005413 | 0.6374
